Results on 8 molecules are retold here after patent publication US11286263B2, “Macrocyclic fluorine substituted indole derivatives” (The Broad Institute, Inc., priority 2017, dated 2022).

Series [1] concerns A2058. As to the kind of experiment: Antiproliferation assay A2058 (Assay 7). The format is cell-based. The conditions noted are these: Homo sapiens; A2058 cells, 72 h, CellTiter-Glo; single determinations; read-out: IC50 Antiproli A2058. On the procedure:
(§1) Assessment of the Anti-Proliferative Effect of Compounds in Different Cell Lines
(§2) The impact of compounds on the proliferation of different cell lines was assessed using the CellTiter-Glo® Luminescent Cell Viability reagent from Promega (G7573).
(§3) In parallel, cells were plated in a reference (day 0) plate for time zero determination.
(§4) Rim wells were excluded. The cells were incubated for 72 h hours in a humidified incubator at 37° C. The day 0 plate was measured by adding 30 μL/well of CTG solution (CellTiter-Glo® Luminescent Cell Viability reagent, Promega G7573) to time zero wells in the reference plate followed by a 10 minutes incubation and luminescence reading at 0.1 ms. using the PHERAstar FS microplate reader (BMG Labtech).
(§5) After 72 h incubation, the treated plates were measured in the same way as the day 0 plate mentioned above.
On the technique in general: Cellular ATP, detected with luciferase, serves as a proxy for viable cell number.

Series [2] deals with AMO-1. Kind of series: Antiproliferation assay AMO-1 (Assay 7). The class given is cell-based. The note with it: AMO-1 cells, CellTiter-Glo, single determinations, read-out: IC50 Antiproli AMO-1. The procedure, abridged:
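Luminescent ATP-based viability (CellTiter-Glo) measured after 72 h of compound treatment at 37 °C. A day 0 plate recorded at time zero served as the starting reference for proliferation.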

For series [3], the system named is SK-BR-3. Kind of series: Antiproliferation assay SK-BR-3 (Assay 7). The class given is cell-based. The note with it: SK-BR-3 cells, CellTiter-Glo, single determinations, read-out: IC50 Antiproli SK-BR-3. On the procedure:
as §1, §2, §3, §4, §5

Series [4] relates to NCI-H23. As to the kind of experiment: Antiproliferation assay NCI-H23 (Assay 7). The note with it: NCI-H23 cells, CellTiter-Glo, single determinations, read-out: IC50 Antiproli NCI-H23. The format is cell-based. On the procedure:
as §1, §2, §3, §4, §5

Series [5] concerns the target MCL-1 (Homo sapiens (Human), UniProt Q07820, K194A/K197A/R201A). Kind of series: Protein-compound interaction assay (SPR assay, Assay 8). The format is binding. The note with it: immobilized MBP-MCL-1, 25° C., geometric mean. From the text: Assay 8 Protein-Compound Interaction Assay (SPR Assay)
The ability of the compounds described in this invention to bind to MCL-1 may be determined using surface plasmon resonance (SPR). This allows for the quantification of binding in terms of the equilibrium dissociation constant (KD [M]), as well as association and dissociation rate constants (kon [1/M 1/s] and koff [1/s], respectively). The measurements may be performed using Biacore® T200 or Biacore® S200 instruments (GE Healthcare).
For SPR measurements, recombinant MCL-1 (amino acids 173-321, N-terminal fused to Maltose Binding Protein (MBP) (SEQ ID 1) purchased from Beryllium (Bedford, Mass., USA)) was immobilized using standard amine coupling (Johnsson B et al, Anal Biochem. 1991 Nov. 1; 198(2):268-77). Briefly, carboxymethylated dextran biosensor chips (Series S Sensor Chip CMS, GE Healthcare) were activated with 1-ethyl-3-(3-dimethylaminopropyl)-carbodiimide hydrochloride (EDC) and N-hydroxysuccinimide (NHS) according to the supplier's instructions. MBP-MCL-1 was diluted in 1×PBS-P+ (GE Healthcare) and injected on the activated chip surface. Subsequently, a solution of 1 M ethanolamine-HCl (GE Healthcare) was injected to block unreacted groups, resulting in approximately 400-2500 response units (RU) of immobilized protein. A reference surface was generated by treatment with NHS-EDC and ethanolamine-HCl. […] For SPR binding-measurements, serial dilutions of compound (eight dilution steps, typically ranging from 0.2 nM up to 1 μM) were injected over immobilized protein. […] Compounds were injected for 60 s followed by a dissociation time of up to 1000 s.
The double-referenced sensorgrams were fit to a simple reversible Langmuir 1:1 reaction mechanism as implemented in the Biacore® T200 and S200 evaluation software (T200 evaluation software version 2.0 and S200 evaluation software version 1.0, GE Healthcare).
In general terms: SPR reads the build-up and loss of mass on a sensor chip optically.

Series [6] relates to HMC-1-8. Kind of series: Antiproliferation assay HMC-1-8 (Assay 7). The format is cell-based. On the procedure: as §1, §2, §3, §4, §5
Series [7] relates to SUDHL10. As to the kind of experiment: Antiproliferation assay SUDHL10 (Assay 7). The format is cell-based. The note with it: Homo sapiens, SU-DHL10; SUDHL10 cells, 72 h, CellTiter-Glo; median; read-out: IC50 Antiproli SUDHL10 [M] (median). On the procedure: as §1, §2, §3, §4, §5
Series [8] concerns BxPC-3. Kind of series: Antiproliferation assay BxPC-3 (Assay 7). The format is cell-based. The note with it: Homo sapiens; BxPC-3 cells, 72 h, CellTiter-Glo; single determinations; read-out: IC50 Antiproli BxPC-3. On the procedure:
as §1, §2, §3, §4, §5

Series [9] deals with SUDHL5.
Series [10] deals with SUDHL10.
Where [11] appears, read: 72 h, HMC-1-8 cells, CellTiter-Glo, single determinations, read-out: IC50 Antiproli HMC-1-8.

pIC50, pKd: −log10 of the molar value. Where “and” joins values, the source holds several entries; their conditions need not be identical. Identical values can stand only once. Counter-ions that a name gives are not always drawn. Like-named read-outs stand apart in the source and are kept apart here. Bounds are passed on as bounds.

MCL-1, sequence (Q07820 whole entry K194A/K197A/R201A, looked up): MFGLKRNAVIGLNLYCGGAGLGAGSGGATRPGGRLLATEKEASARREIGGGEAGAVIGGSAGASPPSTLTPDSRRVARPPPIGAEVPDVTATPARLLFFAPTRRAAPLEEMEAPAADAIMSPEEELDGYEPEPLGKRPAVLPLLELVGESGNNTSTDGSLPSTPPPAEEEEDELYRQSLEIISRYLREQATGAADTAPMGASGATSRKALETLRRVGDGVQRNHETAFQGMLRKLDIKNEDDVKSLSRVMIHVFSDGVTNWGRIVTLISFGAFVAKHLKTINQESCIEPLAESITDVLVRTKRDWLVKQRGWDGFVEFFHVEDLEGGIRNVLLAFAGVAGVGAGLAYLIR

In general, pIC50 refers to −log10 of the IC50, conventionally taken in molar units. As usually defined, the pKd is −log10 of the Kd, conventionally taken in molar units. Read a high pKd as a low Kd. By kon is commonly meant the second-order rate constant of association. Read a low kon as slower complex formation. Broadly, the koff is the rate constant with which the complex falls apart. With `Cc1c2c(nn1C)COCCCCn1c(C(=O)O)c(CCCOc3cccc4ccccc34)c3ccc(F)c-2c31` (racemic) [Example 2, (rac)-4-fluoro-2,3-dimethyl-7-[3-(naphthalen-1-yloxy)propyl]-2,10,11,12,13,15-hexahydro-pyrazolo[4′,3′:9,10][1,6]oxazacycloundecino[8,7,6-hi]indole-8-carboxylic acid], the pIC50 in series [1] was under 4.48; in series [2] (72 h, listed as 02), 5.72; in series [2] (Homo sapiens, AMO1, 72 h), 5.61; in series [3] (Homo sapiens, SK-BR-3, 72 h), 5.15; in series [3] (72 h, listed as 02) it was 5.16; in series [4] (Homo sapiens, NCI-H23, 72 h), 5.12. Besides, the negative logarithm of the IC50 (pIC50) was 5.02 in series [4] (72 h, listed as 02); 5.00 in series [6] (setting [11]); 5.12 in series [6] (HMC-1-8 cells, 72 h, CellTiter-Glo; single determinations; listed as 02; read-out: IC50 Antiproli HMC-1-8). In addition, in series [5], the pKd was 7.37. In series [5], the kon turned out to be 230000 M⁻¹ s⁻¹. Also, in series [5] (read-out: koff), the koff is 0.01 s⁻¹.
The IC50 is the concentration that inhibits the measured activity by half. In the case of `Cc1c2c(nn1C)COCCCCn1c(C(=O)O)c(CCCOc3cccc4c3CCCC4)c3ccc(F)c-2c31` (racemic) [Example 18, (rac)-13-fluoro-11,12-dimethyl-1-(3-((5,6,7,8-tetrahydronaphthalen-1-yl)oxy)propyl)-4,5,6,7,9,11-hexahydropyrazolo[4′,3′:9,10][1]oxa[6]azacycloundecino[8,7,6-hi]indole-2-carboxylic acid], the pIC50 is 5.67 and 5.50 in [2] (72 h); 5.40 in [2] (Homo sapiens, AMO1, 72 h). Further, in series [7], the half-maximal inhibitory concentration (IC50) amounted to 1.5e-06 M.
Consider `Cc1c2c(nn1C)COCCCCn1c(C(=O)O)c(CCCOc3cccc4c3CCC4)c3ccc(F)c-2c31` (racemic) [Example 19, (rac)-1-(3-((2,3-dihydro-1H-inden-4-yl)oxy)propyl)-13-fluoro-11,12-dimethyl-4,5,6,7,9,11-hexahydropyrazolo[4′,3′:9,10][1]oxa[6]azacycloundecino[8,7,6-hi]indole-2-carboxylic acid], for which the pIC50 in series [2] (72 h) is 5.39; in series [2] (Homo sapiens, AMO1, 72 h) it was 5.58. The IC50 in series [7] came out at 1.5e-06 M.
The matching figures for `Cc1nn(C)c2c1-c1c(F)ccc3c(CCCOc4cccc5cc(F)ccc45)c(C(=O)O)n(c13)CCCCOC2` (racemic) [Example 32, (rac)-13-fluoro-1-(3-((6-fluoronaphthalen-1-yl)oxy)propyl)-10,12-dimethyl-4,5,6,7,9,10-hexahydropyrazolo[4′,3′:9,10][1]oxa[6]azacycloundecino[8,7,6-hi]indole-2-carboxylic acid]: 5.37, 5.40 and 1.5e-06 M.
Regarding `Cc1c2c(nn1C)COCCCCn1c(C(=O)O)c(CCCOc3cccc4ccccc34)c3ccc(F)c-2c31` (single isomer, unassigned; enantiomer 1) [Example 3, 4-fluoro-2,3-dimethyl-7-[3-(naphthalen-1-yloxy)propyl]-2,10,11,12,13,15-hexahydropyrazolo-[4′,3′:9,10][1,6]oxazacycloundecino[8,7,6-hi]indole-8-carboxylic acid-N-ethylethanamine salt (enantiomer 1)], the pIC50 in series [1] was under 4.48; in series [2] (Homo sapiens, AMO1, 72 h), 5.70; in series [3] (Homo sapiens, SK-BR-3, 72 h), 5.02; in series [4] (Homo sapiens, NCI-H23, 72 h) it was 5.16; in [6] (setting [11]), 5.21. Further, the negative logarithm of the Kd (pKd) in [5] was 8.38. For the same molecule, the association rate constant (kon) in series [5] worked out at 4.6e+06 M⁻¹ s⁻¹. Moreover, in [5] (read-out: koff), the off-rate constant (koff) came to 0.019 s⁻¹.
Turning to `CCc1c2c(nn1C)COCCCCn1c(C(=O)O)c(CCCOc3cccc4cc(F)ccc34)c3ccc(F)c-2c31` (single isomer, unassigned; enantiomer 1) [Example 22, 3-ethyl-4-fluoro-7-{3-[(6-fluoronaphthalen-1-yl)oxy]propyl}-2-methyl-2,10,11,12,13,15-hexahydropyrazolo[4′,3′:9,10][1,6]oxazacycloundecino[8,7,6-hi]indole-8-carboxylic acid-N-ethylethanamine salt (enantiomer 1)], the negative logarithm of the IC50 (pIC50) in [8] was 4.63; in series [6] (setting [11]) it was 5.61; in series [6] (HMC-1-8 cells, 72 h, CellTiter-Glo; single determinations; read-out: IC50 Antiproli HMC-1-8), 5.45. Besides, in [5], the pKd is 8.80. Further, in series [5], the “koff” value was found to be 0.0072 s⁻¹. Also, in [5], the “kon [1/M 1/s]” value was 4.4E6 1/M 1/s.
In the case of `CCc1nn(C)c2c1-c1c(F)ccc3c(CCCOc4cccc5cc(F)ccc45)c(C(=O)O)n(c13)CCCCOC2` (single isomer, unassigned; enantiomer 1) [Example 39, 3-ethyl-4-fluoro-7-{3-[(6-fluoronaphthalen-1-yl)oxy]propyl}-1-methyl-1,10,11,12,13,15-hexahydropyrazolo[4′,3′:9,10][1,6]oxazacycloundecino[8,7,6-hi]indole-8-carboxylic acid-N-ethylethanamine salt (enantiomer 1)], the pIC50 in series [2] (72 h) is 5.76. Further, in [5], the pKd is 8.82 and the kon is 1.4e+07 M⁻¹ s⁻¹. Further, the koff in [5] (read-out: koff) was determined as 0.021 s⁻¹. In series [6] (setting [11]), the pIC50 is 5.50.
As for “(rac)-1-(3-((2,3-dihydro-1H-inden-4-yl)oxy)propyl)-12-ethyl-13-fluoro-11-methyl-4,5,6,7,9,11-hexahydropyrazolo[4′,3′:9,10][1]oxa[6]azacycloundecino[8,7,6-hi]indole-2-carboxylic acid [Example 30]”, the pIC50 in [2] (72 h) was 5.77; in series [9], 5.96; in series [10], 5.89.
